Patent US20260015337A1 (Trawsfynydd Therapeutics, Inc., priority 2022, published 2026)

Molecular target: 3CL Protease (Severe acute respiratory syndrome coronavirus 2, UniProt P0DTD1)
Experiment: 3CL Protease enzymatic activity assay (BPS Bioscience Assay Kit #78043-1, fluorescence)
Format: biochemical, SARS-CoV-2
Conditions: Table A; 30 min preincubation, 40 μM substrate, 4 hours at room temperature; read-out: IC50, nM (3CL Protease enzymatic activity)
Method in brief: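 SARS-CoV-2 3CL protease was preincubated with compound 30 min at room temperature in assay buffer with 1 mM DTT (≤1% DMSO), then 40 μM substrate added for 4 h at room temperature. Fluorescence at 360/460 nm, blank-subtracted; IC50 from % inhibition, with GC376 as inhibitor control.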

Structure (SMILES) | IC50
Cc1ccc2[nH]c(=O)c(C[C@@H](C#N)NC(=O)[C@@H]3C4[C@H](CN3C(=O)[C@@H](NS(C)(=O)=O)C(C)(C)C)C4(C)C)cc2c1 (stereo in doubt) [Compound 147, (1R,2S,5S)—N-[(1S)-1-cyano-2-(6-methyl-2-oxo-1H-quinolin-3-yl)ethyl]-3-[(2S)-2-(methanesulfonamido)-3,3-dimethyl-butanoyl]-6,6-dimethyl-3-azabicyclo[3.1.0]hexane-2-carboxamide] | < 50 nM
Cc1ccc2[nH]c(=O)c(C[C@@H](C#N)NC(=O)C3C[C@H]4OCC[C@H]4N3C(=O)[C@@H](NC(=O)C(F)(F)F)C(C)(C)C)cc2c1 (stereo partly drawn) [Compound 198, (3aR,6aR)—N—((S)-1-Cyano-2-(6-methyl-2-oxo-1,2-dihydroquinolin-3-yl)ethyl)-4-((S)-3,3-dimethyl-2-(2,2,2-trifluoroacetamido)butanoyl)hexahydro-2H-furo[3,2-b]pyrrole-5-carboxamide] | ≥ 1000 nM
CC(C)(C)[C@H](NC(=O)C(F)(F)F)C(=O)N1C[C@H]2[C@@H]([C@H]1C(=O)N[C@H](C#N)Cc1cc3cc(F)c(F)cc3[nH]c1=O)C2(C)C [Compound 177, (1R,2S,5S)—N—((S)-1-Cyano-2-(6,7-difluoro-2-oxo-1,2-dihydroquinolin-3-yl)ethyl)-3-((S)-3,3-dimethyl-2-(2,2,2-trifluoroacetamido)butanoyl)-6,6-dimethyl-3-azabicyclo[3.1.0]hexane-2-carboxamide] | 50 to 100 nM
CC(C)(C)[C@H](NC(=O)C(F)(F)F)C(=O)N1C[C@H]2[C@@H]([C@H]1C(=O)NC(C#N)Cc1cc3ccccc3[nH]c1=O)C2(C)C (stereo partly drawn) [Compound 182, (1R,2S,5S)-N-[1-cyano-2-(2-oxo-1H-quinolin-3-yl)ethyl]-3-[(2S)-3,3-dimethyl-2-[(2,2,2-trifluoroacetyl)amino]butanoyl]-6,6-dimethyl-3-azabicyclo[3.1.0]hexane-2-carboxamide] | < 50 nM
Cc1ccc2[nH]c(=O)c(CC(C#N)NC(=O)[C@@H]3C4[C@H](CN3C(=O)[C@@H](NS(C)(=O)=O)C(C)(C)C)C4(C)C)cc2c1 (stereo in doubt) [Compound 102, (1R,2S,5S)—N-(1-Cyano-2-(6-methyl-2-oxo-1,2-dihydroquinolin-3-yl)ethyl)-3-((S)-3,3-dimethyl-2-(methylsulfonamido)butanoyl)-6,6-dimethyl-3-azabicyclo[3.1.0]hexane-2-carboxamide] | < 50 nM
COc1cc2cc(C[C@@H](C#N)NC(=O)[C@@H]3[C@@H]4[C@H](CN3C(=O)[C@@H](NC(=O)C(F)(F)F)C(C)(C)C)C4(C)C)c(=O)[nH]c2cc1C [Compound 179] | 50 to 100 nM
CC(C)(C)[C@H](NC(=O)C(F)(F)F)C(=O)N1C[C@H]2[C@@H]([C@H]1C(=O)N[C@@H](C#N)Cc1nc3ccccc3[nH]c1=O)C2(C)C [Compound 186, (1R,2S,5S)—N-[(1R)-1-cyano-2-(3-oxo-4H-quinoxalin-2-yl)ethyl]-3-[(2S)-3,3-dimethyl-2-[(2,2,2-trifluoroacetyl)amino]butanoyl]-6,6-dimethyl-3-azabicyclo[3.1.0]hexane-2-carboxamide] | < 50 nM
CC(C)(C)[C@H](NC(=O)C(F)(F)F)C(=O)N1C[C@H]2C([C@H]1C(=O)NC(C#N)Cc1cc3ccc(Cl)cc3[nH]c1=O)C2(C)C (stereo in doubt) [Compound 105, (1R,2S,5S)—N-(2-(7-Chloro-2-oxo-1,2-dihydroquinolin-3-yl)-1-cyanoethyl)-3-((S)-3,3-dimethyl-2-(2,2,2-trifluoroacetamido)butanoyl)-6,6-dimethyl-3-azabicyclo[3.1.0]hexane-2-carboxamide] | 50 to 100 nM
CC(C)(C)[C@H](NC(=O)C(F)(F)F)C(=O)N1C[C@H]2C([C@H]1C(=O)NC(C#N)Cc1cc3cc(Cl)ccc3[nH]c1=O)C2(C)C (stereo in doubt) [Compound 104, (1R,2S,5S)—N-(2-(6-Chloro-2-oxo-1,2-dihydroquinolin-3-yl)-1-cyanoethyl)-3-((S)-3,3-dimethyl-2-(2,2,2-trifluoroacetamido)butanoyl)-6,6-dimethyl-3-azabicyclo[3.1.0]hexane-2-carboxamide] | 50 to 100 nM
CC(C)(C)[C@H](NC(=O)C(F)(F)F)C(=O)N1C[C@H]2C([C@H]1C(=O)NC(C#N)Cc1ccc[nH]c1=O)C2(C)C (stereo in doubt) [Compound 101, (1R,2S,5S)—N-(1-Cyano-2-(2-oxo-1,2-dihydropyridin-3-yl)ethyl)-3-((S)-3,3-dimethyl-2-(2,2,2-trifluoroacetamido)butanoyl)-6,6-dimethyl-3-azabicyclo[3.1.0]hexane-2-carboxamide] | 100 to 250 nM
Cc1ccc2c(c1)CC(C[C@@H](C#N)NC(=O)[C@@H]1[C@@H]3[C@H](CN1C(=O)[C@@H](NC(=O)C(F)(F)F)C(C)(C)C)C3(C)C)C(=O)N2 (stereo partly drawn) [Compound 120, (1R,2S,5S)—N-[(1S)-1-Cyano-2-(6-methyl-2-oxo-3,4-dihydro-1H-quinolin-3-yl)ethyl]-3-[(2S)-3,3-dimethyl-2-[(2,2,2-trifluoroacetyl)amino]butanoyl]-6,6-dimethyl-3-azabicyclo[3.1.0]hexane-2-carboxamide] | < 50 nM
Cc1ccc2[nH]c(=O)c(CC(C#N)NC(=O)[C@@H]3C4[C@H](CN3C(=O)[C@@H](Nc3nc(C)cs3)C(C)(C)C)C4(C)C)cc2c1 (stereo in doubt) [Compound 151, (1R,2S,5S)—N-(1-Cyano-2-(6-methyl-2-oxo-1,2-dihydroquinolin-3-yl)ethyl)-3-((S)-3,3-dimethyl-2-((4-methylthiazol-2-yl)amino)butanoyl)-6,6-dimethyl-3-azabicyclo[3.1.0]hexane-2-carboxamide] | 500 to 1000 nM
Cc1ccc2[nH]c(=O)c(CC(C#N)NC(=O)[C@@H]3[C@H]4[C@H](CN3C(=O)[C@@H](Nc3ccnc(C)n3)C(C)(C)C)C4(C)C)cc2c1 (some centres unmarked) [Compound 153, 3-[3,3-Dimethyl-2-(2-methyl-pyrimidin-4-ylamino)-butyryl]-6,6-dimethyl-3-aza-bicyclo[3.1.0]hexane-2-carboxylic acid [1-cyano-2-(6-methyl-2-oxo-1,2-dihydro-quinolin-3-yl)-ethyl]-amide] | ≥ 1000 nM
CC(C)(C)[C@H](NC(=O)C(F)(F)F)C(=O)N1C[C@H]2[C@@H]([C@H]1C(=O)NC(C#N)Cc1cc3c([nH]c1=O)CCCC3)C2(C)C (mixture of isomers) [Compound 121, (1R,2S,5S)—N-(1-Cyano-2-(2-oxo-1,2,5,6,7,8-hexahydroquinolin-3-yl)ethyl)-3-((S)-3,3-dimethyl-2-(2,2,2-trifluoroacetamido)butanoyl)-6,6-dimethyl-3-azabicyclo[3.1.0]hexane-2-carboxamide] | 250 to 500 nM
CC(C)(C)[C@H](NC(=O)C(F)(F)F)C(=O)N1C[C@H]2[C@@H]([C@H]1C(=O)N[C@H](C#N)Cc1cc3cnccc3[nH]c1=O)C2(C)C [Compound 174, (1R,2S,5S)—N—((S)-1-Cyano-2-(2-oxo-1,2-dihydro-1,6-naphthyridin-3-yl)ethyl)-3-((S)-3,3-dimethyl-2-(2,2,2-trifluoroacetamido)butanoyl)-6,6-dimethyl-3-azabicyclo[3.1.0]hexane-2-carboxamide] | < 50 nM
Cc1cc2cc(CC(C#N)NC(=O)[C@@H]3C4[C@H](CN3C(=O)[C@@H](NC(=O)C(F)(F)F)C(C)(C)C)C4(C)C)c(=O)[nH]c2cc1C (stereo in doubt) [Compound 145, (1R,2S,5S)—N-(1-cyano-2-(6,7-dimethyl-2-oxo-1,2-dihydroquinolin-3-yl)ethyl)-3-((S)-3,3-dimethyl-2-(2,2,2-trifluoroacetamido)butanoyl)-6,6-dimethyl-3-azabicyclo[3.1.0]hexane-2-carboxamide] | 50 to 100 nM
COC(=O)N[C@@H](C(=O)N1CC2C(C1C(=O)N[C@@H](C#N)Cc1cc3cc(C)ccc3[nH]c1=O)C2(C)C)C(C)(C)C (stereo in doubt) [Compound 200, Methyl N-[(1R)-1-[(1S)-2-[[(1R)-1-cyano-2-(6-methyl-2-oxo-1H-quinolin-3-yl)ethyl]carbamoyl]-6,6-dimethyl-3-azabicyclo[3.1.0]hexane-3-carbonyl]-2,2-dimethyl-propyl]carbamate] | < 50 nM
Cc1ccc2[nH]c(=O)c(C[C@@H](C#N)NC(=O)[C@@H]3[C@@H]4[C@H](CN3C(=O)C(C)c3cc(C(F)(F)F)n[nH]3)C4(C)C)cc2c1 (some centres unmarked) [Compound 194] | ≥ 1000 nM
Cc1ccc2[nH]c(=O)c(C[C@@H](C#N)N(C)C(=O)[C@@H]3[C@@H]4[C@H](CN3C(=O)[C@@H](NC(=O)C(F)(F)F)C(C)(C)C)C4(C)C)cc2c1 [Compound 183, (1R,2S,5S)-N-[(1S)-1-cyano-2-(6-methyl-2-oxo-1H-quinolin-3-yl)ethyl]-3-[(2S)-3,3-dimethyl-2-[(2,2,2-trifluoroacetyl)amino]butanoyl]-N,6,6-trimethyl-3-azabicyclo[3.1.0]hexane-2-carboxamide] | ≥ 1000 nM
CC(C)(C)[C@H](NS(C)(=O)=O)C(=O)N1C[C@H]2[C@@H]([C@H]1C(=O)N[C@H](C#N)Cc1cc3cnccc3[nH]c1=O)C2(C)C [Compound 188, (1R,2S,5S)—N—((S)-1-Cyano-2-(2-oxo-1,2-dihydro-1,6-naphthyridin-3-yl)ethyl)-3-((S)-3,3-dimethyl-2-(methylsulfonamido)butanoyl)-6,6-dimethyl-3-azabicyclo[3.1.0]hexane-2-carboxamide] | < 50 nM

Same assay, conditions: Table B; comparison with known compound K; read-out: IC50, nM (3CL Protease enzymatic activity, comparative data)

Structure (SMILES) | IC50
CC(C)(C)[C@H](NC(=O)C(F)(F)F)C(=O)N1C[C@H]2[C@@H]([C@H]1C(=O)N[C@H](C#N)C[C@@H]1CCCNC1=O)C2(C)C [K, reference compound] | 1290 nM
CC(C)(C)[C@H](NC(=O)C(F)(F)F)C(=O)N1C[C@H]2C([C@H]1C(=O)NC(C#N)Cc1cc3cc(Cl)ccc3[nH]c1=O)C2(C)C (stereo in doubt) [Compound 104, (1R,2S,5S)—N-(2-(6-Chloro-2-oxo-1,2-dihydroquinolin-3-yl)-1-cyanoethyl)-3-((S)-3,3-dimethyl-2-(2,2,2-trifluoroacetamido)butanoyl)-6,6-dimethyl-3-azabicyclo[3.1.0]hexane-2-carboxamide] | 89 nM
CC(C)(C)[C@H](NC(=O)C(F)(F)F)C(=O)N1C[C@H]2C([C@H]1C(=O)NC(C#N)Cc1ccc[nH]c1=O)C2(C)C (stereo in doubt) [Compound 101, (1R,2S,5S)—N-(1-Cyano-2-(2-oxo-1,2-dihydropyridin-3-yl)ethyl)-3-((S)-3,3-dimethyl-2-(2,2,2-trifluoroacetamido)butanoyl)-6,6-dimethyl-3-azabicyclo[3.1.0]hexane-2-carboxamide] | 147 nM
